pIC50: −log10 of the molar value. Like-named read-outs stand apart in the source and are kept apart here.
System: HIV
Test: HIV infection in cell culture (syncytia formation; PBLs or H9 cells)
Format: cell-based
Settings: read-out: IC50 (concentration at which 50% of the virus-induced syncytia were suppressed)
Protocol: The HIV test was carried out with slight modifications according to the method of Pauwels et al. [cf. Journal of Virological Methods 20, (1988), 309-321].
Normal human blood lymphocytes (PBLs) were concentrated by means of Ficoll-Hypaque and stimulated with phytohaemagglutinin (90 μg/ml) and interleukin-2 (40 U/ml) in RPMI 1640 and 20% foetal calf serum. For infection with the infectious HIV, PBLs were pelleted and the cell pellet was then suspended in 1 ml of HIV virus adsorption solution and incubated for 1 hour at 37° C.
Alternatively, HIV-susceptible H9 cells were employed instead of normal human blood lymphocytes for testing the antiviral effects of the compounds according to the invention.
The virus adsorption solution was centrifuged and the infected cell pellet was taken up in growth medium so that a concentration of 1×10^5 cells per ml was established. The cells infected in this way were pipetted into the wells of 96-well microtiter plates to give 1×10^4 cells/well.
The first vertical row of the microtiter plate contained only growth medium and cells which had not been infected, but otherwise treated exactly as described above (cell control). The second vertical row of the microtiter plate contained only HIV-infected cells (virus control) in growth medium. The other wells contained the compounds according to the invention in differing concentrations, starting from the wells of the 3rd vertical row of the microtiter plate, from which the test substances were diluted 2^10 times in 2-fold steps.
The test batches were incubated at 37° C. until, in the untreated virus control, the syncytia formation typical of HIV occurred (between day 3 and 6 after infection), which was then microscopically assessed. Under these test conditions, in the untreated virus control about 20-50 syncytia resulted, while the untreated cell control contained no syncytia.
The IC50 values were determined as the concentration of the treated and infected cells at which 50% (about 10-20 syncytia) of the virus-induced syncytia were suppressed by treatment with the compound according to the invention.

[1] = Human immunodeficiency virus 1, 72 h, HIV-infected PBLs or alternatively H9 cells, 37° C., read between day 3 and 6 after infection

| pIC50 [1] | SMILES | pIC50 (Human immunodeficiency virus 1, H9, 72 h) |
| --- | --- | --- |
|  | Cc1ccnc2c1NC(=O)c1cccnc1N2C1CC1 [BIRG 587, reference compound] | 7.05 |
| 5.82 | CN(C)CCON=c1c2cc(Cl)ccc2[nH]c(=S)c2ccccc12 [Example 2] |  |
| 6.42 | S=c1[nH]c2ccc(Cl)cc2c(=NOCCN2CCOCC2)c2ccccc12 [Example 3] |  |
| 6.42 | CON=c1c2cc(Cl)ccc2[nH]c(=S)c2ccccc12 [Example 4] |  |
